From patent US20120016010A1, “RNA Interference Mediated Inhibition of BTB and CNC Homology 1, Basic Leucine Zipper Transcription Factor 1 (BACH1) Gene Expression Using Short Interfering Nucleic Acid (siNA)” (Merck Sharp & Dohme Corp, priority 2009, published 2012)

Test system: Bach1 mRNA
Test: Bach1 mRNA knockdown and potency in human bronchial epithelial cells (NHBE)
Type: cell-based
Conditions: 48 hours post transfection, mean of 3 donors; for EC50: Bach1 mRNA knockdown; for Maximum mRNA knockdown: Bach1 mRNA
Method: The siNAs with Duplex ID numbers corresponding to 29961-DC, 29964-DC, 29984-DC, 29988-DC, 29957-DC, 29947-DC, and 29956-DC were tested for maximum Bach1 mRNA knockdown and for potency in human bronchial epithelial cells as follows.
Human Bronchial Epithelial cells (NHBE cells) obtained from Lonza (Cat. No. CC-2540) were grown at 37deg in the presence of 5% CO2 and cultured in BEBM basal medium (Lonza, Cat. No. CC-3171) on Biocoat Collagen1 coated flasks (Becton Dickinson).
NHBE cells were plated in collagen 1 coated plates and cultured in appropriate culture media. The cells were cultured for 24 hours after plating at 37 degrees in the presence of 5% CO2. siNAs were diluted in OptiMEM 1 to 1 uM and the transfection agent to 25 ug/ml. For formulation of the siNAs equal volumes of the diluted siNA and delivery lipid were combined and incubated for 20 minutes at room temperature. Cells were meanwhile trypsinised and resuspended in antibiotic free BEBM media at 150,000 cells/ml. 20 ul of the formulated siNA and 80 ul of BEBM media was added per well of a 96 well plate (6 replicates/data point/siNA concentration) so as to give a nine point dose range of the siNAs (100 nM, 30 nM, 10 nM, 3 nM, 1 nM, 0.3 nM, 0.1 nM, 0.03 nM, 0.01 nM). The time of incubation with the transfection-siNA complexes were 48 hours with one change of media at 24 hours.
Total RNA was isolated from the cells in the 96-well plate format using the Automated SV96 Total RNA Isolation System (Promega) according to the manufacturer's instructions. The Biomek 2000 Laboratory Automation Workstation (Beckman Coulter) was used to apply the transfected cell lysates to a silica membrane. RNase-Free DNase I was then applied directly to the silica membrane to digest contaminating genomic DNA. The bound total RNA was further purified from contaminating salts, proteins and cellular impurities by simple washing steps. Finally, total RNA was eluted from the membrane by the addition of Nuclease-Free Water.
A series of probes and primers were used for the detection of mRNA transcripts of Bach1, OAS1, IL8 and GAPDH (as control/normalisation) in the human cell lines. The assays were performed on an ABI 7900HT instrument according to the manufacturer's instructions. Primer Probe sets used:
With Taqman data critical threshold values (Ct) were converted to copy numbers corresponding to the particular gene analysed in each well of the 384 well plate. Six identical wells were prepared in each plate for a given treatment. […] Determination of the percentage coefficient of variation (CV) (% C.V.=[standard deviation/average]*100) allowed the omitting of wells whose value was an outlier (so that % C.V.<25). Relative abundance (aka relative expression) of a gene was determined by dividing the mean copy number of that gene with its GAPDH counterpart in that particular sample.
EC50 values were calculated from the data using sigma plot. All calculations of the efficacy and potency of the siNAs were done relative to the non-targeting control siNA. Percentage knockdown was compared between the four lead siNA's. The data was analysed using an ANOVA test and then the p-values were corrected for multiple comparisons using the False Discovery Rate correction (FDR).

Row | Substance | EC50 [nM] | Maximum mRNA knockdown [%]
1 | 29988-DC (sense AUUUGAACCUUUAAUUCAGTT; antisense CUGAAUUAAAGGUUCAAAUUU; inverted abasic end caps, TT overhangs, modified nucleotides, further chemistry not given here) | 3.84 | 70
2 | 29947-DC (sense GGAAUCCUGCUUUCAGUUUTT; antisense AAACUGAAAGCAGGAUUCCUU; inverted abasic caps (B), 2'-modified nucleotides, further chemistry not given here) | 4.31 | 65
3 | 29957-DC (sense GCAGUUACUUCCACUCAAGTT; antisense CUUGAGUGGAAGUAACUGCUU; inverted abasic end caps, TT overhangs, modified nucleotides, further chemistry not given here) | 0.95 | 70
4 | 29964-DC (sense GAUUUGCAGGUGAUGUUAATT; antisense UUAACAUCACCUGCAAAUCUU; inverted abasic end caps, TT overhangs, modified nucleotides, further chemistry not given here) | 9.52 | 72
5 | 29956-DC (sense GUCUGAGUGUCCGUGGUUATT; antisense UAACCACGGACACUCAGACUU; inverted abasic caps (B), 2'-modified nucleotides, further chemistry not given here) | 2.16 | 68
6 | 29961-DC (sense CUACACUGCUAAACUGAUUTT; antisense AAUCAGUUUAGCAGUGUAGUU; inverted abasic end caps, TT overhangs, modified nucleotides, further chemistry not given here) | 7.87 | 80
7 | 29984-DC (sense GUUAAAGGAUUUGAACCUUTT; antisense AAGGUUCAAAUCCUUUAACUU; inverted abasic end caps, TT overhangs, modified nucleotides, further chemistry not given here) | 23.2 | 65
